# From ChEMBL document CHEMBL5291721, “A preclinical secondary pharmacology resource illuminates target-adverse drug reaction associations of marketed drugs” (Nat Commun, 2023)
# Key:
# [1] = target: 5-hydroxytryptamine receptor 6 (Homo sapiens, UniProt P50406)
# [2] = target: T1, Corticotropin-releasing factor receptor 2 (Homo sapiens, UniProt Q13324)
# T1 sequence (Q13324 whole entry): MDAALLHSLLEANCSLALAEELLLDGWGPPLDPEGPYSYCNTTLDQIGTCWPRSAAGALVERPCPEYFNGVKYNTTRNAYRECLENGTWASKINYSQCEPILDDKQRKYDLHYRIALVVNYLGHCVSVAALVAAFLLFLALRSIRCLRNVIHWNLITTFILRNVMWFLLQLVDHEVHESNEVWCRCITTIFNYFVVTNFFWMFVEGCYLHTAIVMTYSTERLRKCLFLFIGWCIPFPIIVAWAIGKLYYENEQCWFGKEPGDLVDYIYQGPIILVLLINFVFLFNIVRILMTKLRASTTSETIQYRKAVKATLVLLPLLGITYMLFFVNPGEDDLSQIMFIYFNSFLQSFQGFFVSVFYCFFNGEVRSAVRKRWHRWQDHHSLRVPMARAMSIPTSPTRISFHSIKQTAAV
# [3] = target: Voltage-dependent N-type calcium channel subunit alpha-1B (Rattus norvegicus, UniProt Q02294); assay type: functional
# Sequence of Voltage-dependent N-type calcium channel subunit alpha-1B (Q02294 whole entry): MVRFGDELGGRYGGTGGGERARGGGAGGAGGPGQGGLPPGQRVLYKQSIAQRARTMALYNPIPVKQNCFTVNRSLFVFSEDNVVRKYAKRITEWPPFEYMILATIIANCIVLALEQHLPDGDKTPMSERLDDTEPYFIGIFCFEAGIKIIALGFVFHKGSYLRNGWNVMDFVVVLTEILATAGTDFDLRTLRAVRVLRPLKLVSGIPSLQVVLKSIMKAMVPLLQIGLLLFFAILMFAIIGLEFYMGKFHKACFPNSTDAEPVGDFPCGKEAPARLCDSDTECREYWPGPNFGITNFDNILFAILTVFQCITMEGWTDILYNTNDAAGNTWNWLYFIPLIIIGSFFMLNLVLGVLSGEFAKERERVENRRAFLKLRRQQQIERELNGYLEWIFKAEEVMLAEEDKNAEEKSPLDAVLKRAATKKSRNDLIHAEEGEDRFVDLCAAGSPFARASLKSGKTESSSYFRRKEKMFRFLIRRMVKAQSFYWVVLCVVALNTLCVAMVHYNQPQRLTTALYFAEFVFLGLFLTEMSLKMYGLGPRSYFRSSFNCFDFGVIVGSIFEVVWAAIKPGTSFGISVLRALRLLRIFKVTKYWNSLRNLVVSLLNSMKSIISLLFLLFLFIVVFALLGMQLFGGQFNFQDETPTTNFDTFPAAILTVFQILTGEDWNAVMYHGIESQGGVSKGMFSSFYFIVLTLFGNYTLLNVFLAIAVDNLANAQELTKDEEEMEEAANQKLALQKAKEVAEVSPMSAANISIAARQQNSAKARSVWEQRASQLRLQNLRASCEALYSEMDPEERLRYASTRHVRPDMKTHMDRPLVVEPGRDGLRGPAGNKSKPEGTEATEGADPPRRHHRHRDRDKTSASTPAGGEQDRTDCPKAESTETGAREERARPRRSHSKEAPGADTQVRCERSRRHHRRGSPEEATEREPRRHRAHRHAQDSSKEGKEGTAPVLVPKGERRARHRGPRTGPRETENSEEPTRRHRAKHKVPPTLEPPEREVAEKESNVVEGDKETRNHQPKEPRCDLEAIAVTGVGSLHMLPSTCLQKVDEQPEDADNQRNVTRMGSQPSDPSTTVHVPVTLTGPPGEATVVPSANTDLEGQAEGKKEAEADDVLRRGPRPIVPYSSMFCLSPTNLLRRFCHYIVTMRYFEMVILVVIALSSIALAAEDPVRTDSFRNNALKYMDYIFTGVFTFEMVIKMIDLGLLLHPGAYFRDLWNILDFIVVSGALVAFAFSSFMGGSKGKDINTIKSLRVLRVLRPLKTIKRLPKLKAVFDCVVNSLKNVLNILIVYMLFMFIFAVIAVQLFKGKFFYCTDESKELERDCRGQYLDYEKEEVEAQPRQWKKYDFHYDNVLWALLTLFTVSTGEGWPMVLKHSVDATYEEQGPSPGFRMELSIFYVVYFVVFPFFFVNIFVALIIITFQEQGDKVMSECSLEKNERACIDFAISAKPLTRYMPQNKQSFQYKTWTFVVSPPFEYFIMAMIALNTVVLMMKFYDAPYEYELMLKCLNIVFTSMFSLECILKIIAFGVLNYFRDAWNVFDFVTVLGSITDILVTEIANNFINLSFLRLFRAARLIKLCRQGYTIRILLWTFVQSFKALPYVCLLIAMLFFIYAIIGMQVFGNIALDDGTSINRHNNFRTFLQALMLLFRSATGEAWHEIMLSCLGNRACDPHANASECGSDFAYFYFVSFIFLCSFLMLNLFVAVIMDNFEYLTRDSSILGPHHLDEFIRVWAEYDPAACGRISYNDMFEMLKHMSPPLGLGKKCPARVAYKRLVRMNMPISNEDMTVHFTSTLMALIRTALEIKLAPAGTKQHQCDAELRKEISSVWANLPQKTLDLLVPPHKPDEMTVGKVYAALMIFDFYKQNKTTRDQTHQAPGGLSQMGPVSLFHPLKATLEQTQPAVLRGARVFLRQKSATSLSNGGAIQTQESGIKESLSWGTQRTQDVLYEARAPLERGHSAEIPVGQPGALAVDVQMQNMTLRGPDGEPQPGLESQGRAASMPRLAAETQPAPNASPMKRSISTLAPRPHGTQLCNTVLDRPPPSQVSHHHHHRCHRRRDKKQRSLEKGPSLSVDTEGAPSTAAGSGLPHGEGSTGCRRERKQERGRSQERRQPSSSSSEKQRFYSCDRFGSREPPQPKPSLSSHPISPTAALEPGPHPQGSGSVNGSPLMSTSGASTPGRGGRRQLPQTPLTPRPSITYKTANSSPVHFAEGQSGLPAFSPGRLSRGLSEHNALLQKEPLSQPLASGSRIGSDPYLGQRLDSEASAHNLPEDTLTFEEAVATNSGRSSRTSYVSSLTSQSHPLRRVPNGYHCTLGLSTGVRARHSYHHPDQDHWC
# [4] = target: 5-hydroxytryptamine receptor 2B (Homo sapiens, UniProt P41595)
# Sequence of 5-hydroxytryptamine receptor 2B (P41595 whole entry): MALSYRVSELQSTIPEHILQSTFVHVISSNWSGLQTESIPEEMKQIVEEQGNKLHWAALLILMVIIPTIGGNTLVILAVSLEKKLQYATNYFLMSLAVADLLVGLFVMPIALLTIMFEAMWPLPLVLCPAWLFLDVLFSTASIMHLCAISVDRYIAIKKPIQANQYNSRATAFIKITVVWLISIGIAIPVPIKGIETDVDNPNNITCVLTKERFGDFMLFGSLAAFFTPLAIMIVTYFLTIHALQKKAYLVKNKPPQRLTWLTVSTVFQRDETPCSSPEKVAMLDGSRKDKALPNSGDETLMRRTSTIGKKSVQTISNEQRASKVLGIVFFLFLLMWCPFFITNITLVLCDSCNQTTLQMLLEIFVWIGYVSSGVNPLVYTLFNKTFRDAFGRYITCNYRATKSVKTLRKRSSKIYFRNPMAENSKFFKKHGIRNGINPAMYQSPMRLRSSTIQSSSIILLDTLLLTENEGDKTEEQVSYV
# Estrogen receptor beta = Estrogen receptor beta (Homo sapiens, UniProt Q92731)
# Sequence of Estrogen receptor beta (Q92731 whole entry): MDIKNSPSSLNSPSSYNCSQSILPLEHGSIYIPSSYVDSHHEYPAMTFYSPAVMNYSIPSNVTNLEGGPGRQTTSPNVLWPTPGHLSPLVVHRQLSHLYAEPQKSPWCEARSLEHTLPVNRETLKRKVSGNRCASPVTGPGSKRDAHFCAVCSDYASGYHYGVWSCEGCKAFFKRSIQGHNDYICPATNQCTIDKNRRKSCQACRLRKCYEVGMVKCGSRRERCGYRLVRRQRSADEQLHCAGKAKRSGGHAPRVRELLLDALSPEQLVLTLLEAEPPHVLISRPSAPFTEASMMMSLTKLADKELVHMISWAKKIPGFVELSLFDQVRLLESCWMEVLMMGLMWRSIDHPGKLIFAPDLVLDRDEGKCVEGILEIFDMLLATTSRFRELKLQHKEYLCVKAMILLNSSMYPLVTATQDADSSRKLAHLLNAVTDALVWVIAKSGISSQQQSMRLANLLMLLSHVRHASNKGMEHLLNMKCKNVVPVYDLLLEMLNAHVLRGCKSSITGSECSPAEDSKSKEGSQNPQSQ
# [5] = target: 5-hydroxytryptamine receptor 7 (Homo sapiens, UniProt P34969)
# Sequence of 5-hydroxytryptamine receptor 7 (P34969 whole entry): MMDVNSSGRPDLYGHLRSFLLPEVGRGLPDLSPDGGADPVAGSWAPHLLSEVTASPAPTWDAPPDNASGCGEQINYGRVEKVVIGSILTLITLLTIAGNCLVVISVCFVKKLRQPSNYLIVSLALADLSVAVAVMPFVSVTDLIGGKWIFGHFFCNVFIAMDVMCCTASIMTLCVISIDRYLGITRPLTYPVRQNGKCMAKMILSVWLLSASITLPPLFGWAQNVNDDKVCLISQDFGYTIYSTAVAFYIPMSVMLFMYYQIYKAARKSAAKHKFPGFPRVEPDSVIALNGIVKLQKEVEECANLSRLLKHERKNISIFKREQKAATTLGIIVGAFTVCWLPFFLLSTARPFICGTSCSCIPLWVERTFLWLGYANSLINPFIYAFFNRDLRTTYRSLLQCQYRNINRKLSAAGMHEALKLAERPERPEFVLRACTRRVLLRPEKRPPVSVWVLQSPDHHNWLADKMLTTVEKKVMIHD
# Substance-P receptor = Substance-P receptor (Homo sapiens, UniProt P25103)
# Sequence of Substance-P receptor (P25103 whole entry): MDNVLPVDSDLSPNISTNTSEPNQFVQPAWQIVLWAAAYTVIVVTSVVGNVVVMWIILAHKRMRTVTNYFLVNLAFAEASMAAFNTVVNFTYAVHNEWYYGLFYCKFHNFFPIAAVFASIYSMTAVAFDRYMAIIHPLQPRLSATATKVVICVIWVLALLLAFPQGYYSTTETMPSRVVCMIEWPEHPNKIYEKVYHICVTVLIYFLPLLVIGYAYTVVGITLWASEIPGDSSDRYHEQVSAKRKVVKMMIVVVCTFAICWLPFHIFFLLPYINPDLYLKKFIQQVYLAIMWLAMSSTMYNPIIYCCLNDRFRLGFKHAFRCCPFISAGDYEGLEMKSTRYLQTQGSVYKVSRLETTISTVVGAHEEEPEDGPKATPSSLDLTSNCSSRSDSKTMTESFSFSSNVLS
# [6] = target: T2, Alpha-2A adrenergic receptor (Homo sapiens, UniProt P08913)
# T2 sequence (P08913 whole entry): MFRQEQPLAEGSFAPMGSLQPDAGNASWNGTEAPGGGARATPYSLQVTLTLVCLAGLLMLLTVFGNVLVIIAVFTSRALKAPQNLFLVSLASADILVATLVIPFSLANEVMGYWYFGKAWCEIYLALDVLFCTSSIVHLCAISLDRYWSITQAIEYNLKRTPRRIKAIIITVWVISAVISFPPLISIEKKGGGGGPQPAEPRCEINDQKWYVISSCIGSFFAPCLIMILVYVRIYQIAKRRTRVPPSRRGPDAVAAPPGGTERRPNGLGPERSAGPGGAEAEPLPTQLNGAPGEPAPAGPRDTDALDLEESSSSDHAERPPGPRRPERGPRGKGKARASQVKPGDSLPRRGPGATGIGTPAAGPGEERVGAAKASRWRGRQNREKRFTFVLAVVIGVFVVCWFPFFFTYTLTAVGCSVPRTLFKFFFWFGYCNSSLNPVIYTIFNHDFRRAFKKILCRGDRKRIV
# [7] = target: T3, Endothelin receptor type B (Homo sapiens, UniProt P24530)
# T3 sequence (P24530 whole entry): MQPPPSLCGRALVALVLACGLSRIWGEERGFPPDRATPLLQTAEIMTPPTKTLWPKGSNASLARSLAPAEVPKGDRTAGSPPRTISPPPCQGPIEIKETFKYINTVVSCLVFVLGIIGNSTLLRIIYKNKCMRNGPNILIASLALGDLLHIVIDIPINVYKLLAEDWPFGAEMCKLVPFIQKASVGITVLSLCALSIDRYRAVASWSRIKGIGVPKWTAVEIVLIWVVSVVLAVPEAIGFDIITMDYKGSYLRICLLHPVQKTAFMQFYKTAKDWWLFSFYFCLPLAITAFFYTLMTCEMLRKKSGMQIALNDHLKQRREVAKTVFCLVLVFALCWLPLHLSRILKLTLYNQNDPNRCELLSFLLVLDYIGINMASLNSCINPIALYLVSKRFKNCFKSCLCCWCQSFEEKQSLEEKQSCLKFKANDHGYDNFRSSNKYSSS
# D(4) dopamine receptor = target: T4, D(4) dopamine receptor (Homo sapiens, UniProt P21917)
# T4 sequence (P21917 whole entry): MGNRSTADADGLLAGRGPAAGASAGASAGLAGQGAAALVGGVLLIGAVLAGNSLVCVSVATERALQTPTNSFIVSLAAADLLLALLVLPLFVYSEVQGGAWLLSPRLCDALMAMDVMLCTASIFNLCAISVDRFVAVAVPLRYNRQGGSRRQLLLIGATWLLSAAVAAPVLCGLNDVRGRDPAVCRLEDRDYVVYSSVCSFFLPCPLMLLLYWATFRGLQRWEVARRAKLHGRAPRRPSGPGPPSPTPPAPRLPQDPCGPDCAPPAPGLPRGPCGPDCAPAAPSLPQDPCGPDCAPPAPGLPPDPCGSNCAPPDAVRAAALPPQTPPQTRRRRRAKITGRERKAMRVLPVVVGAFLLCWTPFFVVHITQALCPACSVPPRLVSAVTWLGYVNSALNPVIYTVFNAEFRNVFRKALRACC
# Further: assay procedure not described here.
# Sequence of 5-hydroxytryptamine receptor 6 (P50406 whole entry): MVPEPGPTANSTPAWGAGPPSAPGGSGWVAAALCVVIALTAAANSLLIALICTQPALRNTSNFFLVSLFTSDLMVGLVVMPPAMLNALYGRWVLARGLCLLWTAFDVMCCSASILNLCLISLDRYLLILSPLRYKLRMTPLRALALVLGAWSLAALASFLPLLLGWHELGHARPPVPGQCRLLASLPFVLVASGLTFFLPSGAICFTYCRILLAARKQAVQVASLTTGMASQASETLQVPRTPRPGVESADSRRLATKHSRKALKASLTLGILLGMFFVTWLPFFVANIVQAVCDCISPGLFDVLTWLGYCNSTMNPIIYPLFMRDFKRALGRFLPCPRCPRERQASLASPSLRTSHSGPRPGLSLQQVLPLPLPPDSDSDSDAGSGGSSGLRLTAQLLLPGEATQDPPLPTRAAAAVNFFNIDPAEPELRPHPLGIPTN
Structure (SMILES),AC50 [1] [µM],AC50 [2] [µM],AC50 [3] [µM],AC50 [4] [µM],AC50 (Estrogen receptor beta) [µM],AC50 [5] [µM],AC50 (Substance-P receptor) [µM],AC50 [6] [µM],AC50 [7] [µM],AC50 (D(4) dopamine receptor) [µM]
Nc1nc(N)c2nc(-c3ccccc3)c(N)nc2n1,> 10,> 30,> 10,> 10,> 30,> 10,> 10,> 10,> 30,> 10
C[C@H]1O[C@H](O[C@H]2[C@H](O)[C@@H](O)[C@@H](O[C@H]3[C@H](O)[C@@H](O)C(O)O[C@@H]3CO)O[C@@H]2CO)[C@H](O)[C@@H](O)[C@@H]1N[C@H]1C=C(CO)[C@@H](O)[C@H](O)[C@H]1O (stereo not given in full) [ACARBOSE],> 10,> 30,> 10,> 10,> 30,> 10,> 10,> 10,> 30,> 10
NS(=O)(=O)c1cc2c(cc1Cl)NCNS2(=O)=O [HYDROCHLOROTHIAZIDE],> 10,> 30,> 10,6.91,> 30,> 10,> 10,> 10,> 30,> 10
CCc1ccc(CCOc2ccc(CC3SC(=O)NC3=O)cc2)nc1 (stereo not given) [PIOGLITAZONE],> 10,> 30,> 10,> 10,> 30,> 10,> 10,7.05,> 30,> 10
